This test has as its system dermal collagen production. As to conditions: topical Niacin plus 585 nm pulsed dye laser irradiation versus irradiation alone.

SMILES strings stand for the structures.

Excerpt: Tests have been carried out for studying the dermal collagen production following topical application of Niacin prior to irradiation with a 585 nm pulsed dye laser.

As for `O=C(O)c1cccnc1` [Niacin, nicotinic acid], the “PIIINP levels (biochemical analysis)” value is listed as “increase in the PIIINP levels above that of irradiation alone”.

The values above are taken from patent US20070112042A1, “Topical agent for application to the skin prior to luminous treatment” (priority 2003, published 2007).
